# Experimental data: ChEMBL document CHEMBL4002620, “Synthesis of Vorinostat and cholesterol conjugate to enhance the cancer cell uptake selectivity” (Bioorg Med Chem Lett, 2017)
# Columns and labels:
# [1] = system: NCI-H292; assay: cells; assay type: functional, cell-based; conditions: Homo sapiens, NCI-H292, 72 h
# Description: Growth inhibition of human NCI-H292 cells after 72 hrs in presence of LDL by MTT assay
# [2] = system: NCI-H292; assay: cells; assay type: functional, cell-based; conditions: Homo sapiens, NCI-H292, 72 h; remark: listed apart in the source
# Description: Growth inhibition of human NCI-H292 cells after 72 hrs by MTT assay
# [3] = system: NCI-H292; assay: cells; assay type: functional, cell-based; conditions: Homo sapiens, NCI-H292, 72 h; remark: listed apart in the source
# Description: Growth inhibition of human NCI-H292 cells in FBS containing medium after 72 hrs using compound after sonication in presence of LDL by MTT assay
# [4] = system: NCI-H292; assay: cells; assay type: functional, cell-based; conditions: Homo sapiens, NCI-H292, 72 h; remark: listed apart in the source
# Description: Growth inhibition of human NCI-H292 cells in LDL depleted FBS containing medium after 72 hrs using compound after sonication in presence of LDL by MTT assay
# [5] = Solubility of the compound in aqueous solution at 20 uM; assay type: physicochemical; conditions: buffer
# [6] = Drug metabolism in human NCI-H292 cells assessed as compound hydrolysis by measuring increase in 4-amino SAHA formation after 30 mins by HPLC-ESI-MS analysis; assay type: ADME, cell-based; conditions: nci-h292, 0.5 h
# [7] = Solubility of the compound in aqueous solution at 500 uM in presence of LDL; assay type: physicochemical; conditions: buffer
IC50 [1],IC50 [2],IC50 [3],IC50 [4],solubility [5],Drug metabolism [6],solubility [7],SMILES
14.9 µM,2.77 µM,14.7 µM,7.8 µM,,,,Nc1ccc(NC(=O)CCCCCCC(=O)NO)cc1
> 500 µM,> 500 µM,> 500 µM,91.2 µM,Insoluble,Metabolite_Detected,Soluble,CC(C)CCC[C@@H](C)[C@H]1CC[C@H]2[C@@H]3CC=C4C[C@@H](OC(=O)Nc5ccc(NC(=O)CCCCCCC(=O)NO)cc5)CC[C@]4(C)[C@H]3CC[C@]12C
